Data published in patent US8338565B2, “Macrocyclic compounds for inhibition of tumor necrosis factor alpha” (Ensemble Therapeutics Corporation, priority 2008, dated 2012).
Numbered stars: 1 amine (or outer) side, 2 acyl side, 3 side chain; on linkers, the order of the positions; unused ones are H or OH. Bridge positions count the residues as written; N and C are the ends. Square brackets hold non-standard residues; d marks the D form. Peptide text beside a SMILES is read from it. * marks the point of attachment. Tartaroyl(2R,3R-(OAc)2) = CC(=O)O[C@@H](C(=O)[*:1])[C@@H](OC(C)=O)C(=O)[*:2]; Phe(3-CF3) = N[C@@H](Cc1cccc(C(F)(F)F)c1)C(=O)O; Phe(4-CF3) = N[C@@H](Cc1ccc(C(F)(F)F)cc1)C(=O)O; dPhe(3-CF3) = N[C@H](Cc1cccc(C(F)(F)F)c1)C(=O)O; Phe(4-COOH) = N[C@@H](Cc1ccc(C(=O)O)cc1)C(=O)O; dPhe(4-CN) = N#Cc1ccc(C[C@@H](N)C(=O)O)cc1; Bip = N[C@@H](Cc1ccc(-c2ccccc2)cc1)C(=O)O; dPhe(4-NH2) = Nc1ccc(C[C@@H](N)C(=O)O)cc1; Phe(4-Br) = N[C@@H](Cc1ccc(Br)cc1)C(=O)O; Phe(4-CN) = N#Cc1ccc(C[C@H](N)C(=O)O)cc1; Phe(4-NH2) = Nc1ccc(C[C@H](N)C(=O)O)cc1; dAla(2-furyl) = N[C@H](Cc1ccco1)C(=O)O; Diglycolyl = O=C(COCC(=O)[*:2])[*:1]; d(hPhe) = N[C@H](CCc1ccccc1)C(=O)O; d2Thi = N[C@H](Cc1cccs1)C(=O)O; Suc = O=C(CCC(=O)[*:2])[*:1]; Inp = O=C(O)C1CCNCC1; Bn = c1ccc(C*)cc1; GABA = NCCCC(=O)O; OtBu = CC(C)(C)O*

Target: T1, TNFα / TNFα receptor (TNFα R1/Fc) (Homo sapiens, UniProt P01375)
T1 construct: purchased R&D Systems
T1 sequence (P01375 77-233 limits assumed, species assumed): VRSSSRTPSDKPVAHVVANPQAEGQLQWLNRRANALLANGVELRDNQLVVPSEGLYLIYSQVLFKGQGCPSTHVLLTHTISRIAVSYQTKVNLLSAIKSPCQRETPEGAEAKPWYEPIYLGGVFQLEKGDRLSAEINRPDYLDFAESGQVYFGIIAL
Experiment: Inhibition of binding of TNFα to the TNFα receptor (plate ELISA competition)
Conditions: Table 2; read-out: Activity (IC50, inhibition of TNFα binding to TNFα R1/Fc)
In short: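 Compound dilutions were preincubated 30 min at RT with 8.33 nM TNFα R1/Fc in PBST with 2% DMSO, then added to wells coated with 15 nM TNFα for 30 min. Bound receptor was detected with HRP anti-human Fc and TMB, read as A450.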

IC50 | Compound
> 100 µM | O=C(O)CC[C@H](NC(=O)[C@@H]1Cc2ccc(cc2)OCC(=O)N[C@H](Cc2cccs2)C(=O)N[C@@H](Cc2ccc(-c3ccccc3)cc2)C(=O)N[C@H](CCc2ccccc2)C(=O)N1)C(=O)O [Compound 308]
> 100 µM | O=C1COc2ccc(cc2)C[C@H](C(=O)O)NC(=O)[C@H](Cc2ccccc2F)NC(=O)[C@@H](Cc2ccc(-c3ccccc3)cc2)NC(=O)[C@H](Cc2ccncc2)N1 [Compound 729]
10 to 30 µM | O=C1COc2ccc(cc2)C[C@@H](C(=O)NCS(=O)(=O)O)NC(=O)[C@H](Cc2ccccc2F)NC(=O)[C@@H](Cc2ccc(-c3ccccc3)cc2)NC(=O)[C@H](Cc2cccs2)N1 [Compound 612]
> 100 µM | O=C1COc2ccc(cc2)C[C@@H](C(=O)O)NC(=O)[C@H](c2ccccc2)NC(=O)[C@H](Cc2ccc(-c3ccccc3)cc2)NC(=O)[C@H](Cc2cccs2)N1 [Compound 291]
< 10 µM | O=C1COc2ccc(cc2)C[C@@H](C(=O)N[C@@H](Cc2ccc(O)cc2)C(=O)O)NC(=O)[C@H](CCc2ccccc2)NC(=O)[C@@H](Cc2ccc(-c3ccccc3)cc2)NC(=O)[C@H](Cc2ccc(-c3ccncc3)cc2)N1 [Compound 585]
10 to 30 µM | O=C(O)CCCNC(=O)[C@H]1Cc2ccc(cc2)OCC(=O)N[C@@H](Cc2ccncc2)C(=O)N[C@H](Cc2ccc(-c3ccccc3)cc2)C(=O)N[C@@H](Cc2c[nH]c3ccccc23)C(=O)N1 [Compound 717]
< 10 µM | O=C1COc2ccc(cc2)C[C@@H](C(=O)N[C@H](CCc2ccccc2)C(=O)O)NC(=O)[C@H](Cc2c[nH]c3ccccc23)NC(=O)[C@@H](Cc2ccc(-c3ccccc3)cc2)NC(=O)[C@H](Cc2c[nH]c3ccccc23)N1 [Compound 744]
30 to 100 µM | O=C(O)CCCNC(=O)[C@@H]1Cc2ccc(cc2)C(=O)N[C@H](CCc2ccccc2)C(=O)N[C@@H](Cc2ccc(-c3ccccc3)cc2)C(=O)N[C@H](Cc2ccccc2)C(=O)N1 [Compound 425] ([d(hPhe)][Bip][dF][Phe(4-COOH)][GABA]-OH; lactam N-4)
< 10 µM | O=C1COc2ccc(cc2)C[C@@H](C(=O)N[C@H](CCc2ccccc2)C(=O)O)NC(=O)[C@H](Cc2ccccc2F)NC(=O)[C@@H](Cc2ccc(-c3ccccc3)cc2)NC(=O)[C@H](Cc2ccncc2)N1 [Compound 742]
> 100 µM | O=C1COCC(=O)N[C@H](Cc2cccs2)C(=O)N[C@@H](Cc2ccc(-c3ccccc3)cc2)C(=O)N[C@H](Cc2ccccc2)C(=O)N[C@H](C(=O)O)Cc2ccc(cc2)N1 [Compound 310] ([d2Thi][Bip][dF][Phe(4-NH2)]-OH; linker N-4 via Diglycolyl)
< 10 µM | O=C1COc2ccc(cc2)C[C@@H](C(=O)O)NC(=O)[C@H](CCc2ccccc2)NC(=O)[C@@H](Cc2ccc(-c3ccccc3)cc2)NC(=O)[C@H](Cc2cccc3ccccc23)N1 [Compound 694]

Further lines, the molecule ahead of its results:

Compound | IC50
O=C1N[C@@H](C(=O)O)Cc2ccc(cc2)NC(=O)[C@H](O)[C@@H](O)C(=O)N[C@H](Cc2cccs2)C(=O)N[C@@H](Cc2ccc(-c3ccccc3)cc2)C(=O)N[C@H]1Cc1ccccc1 [Compound 275] | > 100 µM
O=C1CCC(=O)N[C@H](Cc2cccs2)C(=O)N[C@@H](Cc2ccc(-c3ccccc3)cc2)C(=O)N[C@H](Cc2ccccc2)C(=O)N[C@H](C(=O)N2CCC(C(=O)O)CC2)Cc2ccc(cc2)N1 [Compound 23] ([d2Thi][Bip][dF][Phe(4-NH2)][Inp]-OH; linker N-4 via Suc) | > 100 µM
O=C(O)[C@H](Cc1ccccc1)NC(=O)[C@H]1Cc2ccc(cc2)NC(=O)[C@H](O)[C@@H](O)C(=O)N[C@@H](Cc2cccs2)C(=O)N[C@H](Cc2ccc(Br)cc2)C(=O)N[C@@H](CCc2ccccc2)C(=O)N1 [Compound 436] | < 10 µM
N#Cc1ccc(C[C@@H]2NC(=O)[C@@H](Cc3cccs3)NC(=O)CCC(=O)Nc3ccc(cc3)C[C@@H](C(=O)O)NC(=O)[C@@H](Cc3ccccc3)NC2=O)cc1 [Compound 94] ([d2Thi][Phe(4-CN)][dF][Phe(4-NH2)]-OH; linker N-4 via Suc) | > 100 µM
O=C1COc2ccc(cc2)C[C@@H](C(=O)N[C@@H](Cc2ccc(O)cc2)C(=O)O)NC(=O)[C@H](CCc2ccccc2)NC(=O)[C@@H](Cc2ccc(-c3ccccc3)cc2)NC(=O)[C@H](Cc2ccc(-c3ccccc3)cc2)N1 [Compound 567] | < 10 µM
N#Cc1ccc(C[C@H]2NC(=O)CCC(=O)Nc3ccc(cc3)C[C@@H](C(=O)O)NC(=O)[C@@H](Cc3ccccc3)NC(=O)[C@H](Cc3ccc(C(F)(F)F)cc3)NC2=O)cc1 [Compound 131] ([dPhe(4-CN)][Phe(4-CF3)][dF][Phe(4-NH2)]-OH; linker N-4 via Suc) | 30 to 100 µM
O=C1CCC(=O)N[C@H](Cc2cccs2)C(=O)N[C@@H](Cc2ccc(-c3ccccc3)cc2)C(=O)N[C@H](Cc2cccc(C(F)(F)F)c2)C(=O)N[C@H](C(=O)O)Cc2ccc(cc2)N1 [Compound 78] ([d2Thi][Bip][dPhe(3-CF3)][Phe(4-NH2)]-OH; linker N-4 via Suc) | > 100 µM
O=C(O)[C@@H]1Cc2ccc(cc2)NC(=O)[C@H](O)[C@@H](O)C(=O)N[C@H](Cc2cccs2)C(=O)N[C@@H](Cc2ccc(Br)cc2)C(=O)N[C@H](Cc2ccccc2)C(=O)N1 [Compound 293] | > 100 µM
O=C1COc2ccc(cc2)C[C@@H](C(=O)O)NC(=O)[C@H](Cc2ccccc2)NC(=O)[C@@H](Cc2ccc(F)cc2)NC(=O)[C@H](Cc2cccs2)N1 [Compound 355] | > 100 µM
O=C1CCC(=O)N[C@H](Cc2cccs2)C(=O)N[C@@H](Cc2ccc(OCc3ccccc3)cc2)C(=O)N[C@H](Cc2ccccc2)C(=O)N[C@H](C(=O)O)Cc2ccc(cc2)N1 [Compound 92] ([d2Thi]Y(Bn)[dF][Phe(4-NH2)]-OH; linker N-4 via Suc) | 30 to 100 µM
CC(C)(C)OC(=O)CC[C@H]1NC(=O)[C@H](Cc2ccc(-c3ccccc3)cc2)NC(=O)[C@@H](Cc2cccs2)NC(=O)CCC(=O)Nc2ccc(cc2)C[C@@H](C(=O)O)NC1=O [Compound 67] ([d2Thi][Bip][dE](OtBu)[Phe(4-NH2)]-OH; linker N-4 via Suc) | 30 to 100 µM
O=C(O)C[C@@H]1NC(=O)[C@H](Cc2ccc(-c3ccccc3)cc2)NC(=O)[C@@H](Cc2cccs2)NC(=O)CCC(=O)Nc2ccc(cc2)C[C@@H](C(=O)O)NC1=O [Compound 64] ([d2Thi][Bip]D[Phe(4-NH2)]-OH; linker N-4 via Suc) | > 100 µM
O=C(O)[C@@H]1Cc2ccc(cc2)NC(=O)[C@H](O)[C@@H](O)C(=O)N[C@H](Cc2ccc(C(F)(F)F)cc2)C(=O)N[C@@H](Cc2ccc(-c3ccccc3)cc2)C(=O)N[C@H](Cc2ccccc2)C(=O)N1 [Compound 263] | > 100 µM
CC(=O)O[C@H]1C(=O)Nc2ccc(cc2)C[C@H](C(=O)O)NC(=O)[C@@H](Cc2ccco2)NC(=O)[C@H](Cc2ccc(Br)cc2)NC(=O)[C@@H](Cc2cccs2)NC(=O)[C@@H]1OC(C)=O [Compound 154] ([d2Thi][Phe(4-Br)][dAla(2-furyl)][dPhe(4-NH2)]-OH; linker N-4 via Tartaroyl(2R,3R-(OAc)2)) | > 100 µM
O=C1CCC(=O)N[C@H](Cc2cccs2)C(=O)N[C@@H](Cc2cccc(C(F)(F)F)c2)C(=O)N[C@H](Cc2ccccc2)C(=O)N[C@H](C(=O)O)Cc2ccc(cc2)N1 [Compound 208] ([d2Thi][Phe(3-CF3)][dF][Phe(4-NH2)]-OH; linker N-4 via Suc) | > 100 µM
O=C(O)C[C@@H]1Cc2ccc(cc2)NC(=O)[C@H](O)[C@@H](O)C(=O)N[C@H](Cc2cccs2)C(=O)N[C@@H](Cc2ccc(-c3ccccc3)cc2)C(=O)N[C@H](Cc2ccccc2)C(=O)N1 [Compound 309] | 10 to 30 µM
